The source of these data is ChEMBL document CHEMBL3797180, “Squaramides with cytotoxic activity against human gastric carcinoma cells HGC-27: synthesis and mechanism of action” (Medchemcomm, 2016).

In assay [1] the test system is HeLa. The experiment in a line: Cytotoxicity against human HeLa cells assessed as inhibition of cell viability at 100 uM after 24 hrs by MTT assay. It counts as functional, cell-based.
Assay [2] concerns HGC-27. The experiment in a line: Cytotoxicity against HGC27 cells assessed as inhibition of cell viability at 100 uM after 24 hrs by MTT assay. It is filed as functional, cell-based. Conditions: Homo sapiens. In general terms: Tetrazolium assays rely on reduction of a dye to a coloured formazan, in cell work by metabolically active cells.
Assay [3] relates to HeLa. The experiment in a line: Cytotoxicity against human HeLa cells after 24 hrs by MTT assay. It counts as functional, cell-based.
Assay [4] concerns HeLa. The experiment in a line: Cytotoxicity against human HeLa cells assessed as inhibition of cell viability at 20 uM after 24 hrs by MTT assay. It is filed as functional, cell-based.
The nature of assay [5]: Cytotoxicity against HGC27 cells after 24 hrs by MTT assay. It is filed as functional, cell-based. Conditions: Homo sapiens, HGC-27, 24 h.
The test system of assay [6] is HGC-27. The experiment in a line: Cytotoxicity against HGC27 cells assessed as inhibition of cell viability at 20 uM after 24 hrs by MTT assay. Conditions: Homo sapiens. It counts as functional, cell-based.
In assay [7] the test system is HGC-27. The experiment in a line: Induction of apoptosis in HGC27 cells assessed as apoptotic cells after 24 hrs by Annexin-V-FITC/propidium iodide staining-based flow cytometry. Conditions: Homo sapiens. It counts as functional, cell-based. (In general: Flow cytometry measures light scatter and fluorescence of single cells or particles in a stream.)
In assay [8] the test system is HGC-27. The experiment in a line: Induction of apoptosis in HGC27 cells assessed as early apoptotic cells at 2 uM after 24 hrs by Annexin-V-FITC/propidium iodide staining-based flow cytometry (reference value: 6.7%). It counts as functional, Homo sapiens.
Assay [9] deals with HGC-27. The experiment in a line: Induction of apoptosis in HGC27 cells assessed as late apoptotic cells at 2 uM after 24 hrs by Annexin-V-FITC/propidium iodide staining-based flow cytometry (reference value: 6.7%). It counts as functional, Homo sapiens.
For assay [10], the system named is HGC-27. The experiment in a line: Induction of apoptosis in HGC27 cells assessed as necrotic cells at 2 uM after 24 hrs by Annexin-V-FITC/propidium iodide staining-based flow cytometry. It counts as functional, Homo sapiens.

Active and inactive are the calls of the source. The calls are words filed in the database; no cut-off is given here.

As to `COc1c(Nc2ccccc2)c(=O)c1=O`, the inhibition result in assay [1] and in assay [2] was “inactive” in each case.
Consider `C=CC1CN2CCC1CC2[C@@H](Nc1c(Nc2cc(C(F)(F)F)cc(C(F)(F)F)c2)c(=O)c1=O)c1ccnc2ccccc12` (stereo partly drawn), for which the IC50 in assay [3] worked out at 11.3 µM; in assay [5] it was 8.12 µM. In addition, the inhibition entry in assay [1], in [4], in assay [6] and in assay [2] was “Active” in each case.
With `COc1c(Nc2ccc(C(F)(F)F)cc2)c(=O)c1=O`, the inhibition result in [1] and in [2] was “inactive” each time.
Consider `CCc1cc(C#N)ccc1Nc1c(OC)c(=O)c1=O`, for which the inhibition entry in assay [1] and in assay [2] was “inactive” each time.
For the compound `COc1c(N[C@@H]2CCCC[C@H]2NS(=O)(=O)c2ccc(C)cc2)c(=O)c1=O`, the inhibition entry in [1] and in assay [2] was “inactive” each time.
With `C=CC1CN2CCC1CC2[C@H](Nc1c(NCc2cc(C(F)(F)F)cc(C(F)(F)F)c2)c(=O)c1=O)c1ccnc2ccccc12` (stereo partly drawn), the IC50 in [3] was found to be 12.1 µM; in assay [5] it was 3.01 µM. Further, the inhibition entry in [1], in [4], in assay [6] and in [2] was “Active” in each case.
For the compound `O=c1c(Nc2ccc3ccccc3c2-c2c(O)ccc3ccccc23)c(N[C@@H]2CCCC[C@H]2N2CCCC2)c1=O`, the IC50 in assay [3] was above 20 µM; in assay [5] it was 10.8 µM. In addition, the inhibition entry in assay [4] was “inactive”. Moreover, the inhibition entry in assay [6] is “Active”.
As for `O=c1c(NCc2cc(C(F)(F)F)cc(C(F)(F)F)c2)c(N[C@@H]2CCCC[C@H]2N2CCCCC2)c1=O`, the inhibition result in assay [1] and in assay [2] was “Active” throughout.
Take `C[C@H](c1c(Nc2cc(F)cc(F)c2)c(=O)c1=O)c1cccc2ccccc12`: the inhibition result in assay [4] and in assay [6] was “Active” each time.
Regarding `C[C@@H](Nc1c(Nc2cc(C(F)(F)F)cc(C(F)(F)F)c2)c(=O)c1=O)c1ccccc1`, the inhibition result in assay [1] and in assay [2] was “Active” throughout. For the same compound, the inhibition entry in assay [4] and in assay [6] was “inactive” throughout.
`COc1c(N[C@@H](C)c2cccc3ccccc23)c(=O)c1=O`: the inhibition entry in assay [1] and in assay [2] was “inactive” throughout.
With `COc1c(N[C@H]2c3ccccc3C[C@H]2O)c(=O)c1=O`, the inhibition entry in assay [1] and in [2] was “inactive” each time.
On to `O=c1c(Nc2cc(C(F)(F)F)cc(C(F)(F)F)c2)c(N[C@@H](CO)Cc2ccccc2)c1=O`, for which the inhibition result in [1] and in [2] was “Active” throughout. Moreover, the inhibition entry in assay [4] and in [6] was “inactive” each time.
Turning to `COc1c(Nc2cc(F)cc(F)c2)c(=O)c1=O`, the inhibition entry in [1] and in assay [2] was “inactive” each time.
With `O=c1c(Nc2cc(C(F)(F)F)cc(C(F)(F)F)c2)c(N[C@@H]2CCCC[C@H]2N2CCCCC2)c1=O`, the inhibition entry in assay [1], in [4], in assay [6] and in [2] was “Active” each time.
In the case of `O=c1c(Nc2cc(F)cc(F)c2)c(N[C@@H](c2ccccc2)C(O)(c2ccccc2)c2ccccc2)c1=O`, the IC50 in assay [3] was above 20 µM; in assay [5], 3.39 µM. The inhibition result in [4] was “inactive”. For the same compound, the inhibition entry in assay [6] was “Active”.
Regarding `COc1c(Nc2ccc([N+](=O)[O-])cc2)c(=O)c1=O`, the inhibition entry in [1] and in assay [2] was “inactive” throughout.
`COc1cccc2c1C(=O)c1c(O)c3c(c(O)c1C2=O)C[C@@](O)(C(=O)CO)C[C@@H]3O[C@H]1C[C@H](N)[C@H](O)[C@H](C)O1` [DOXORUBICIN]: the Activity entry in [7] is “Dose-dependent effect”; in [8] it was 3.2%; in [9] it was 16.7%; in assay [10], 32.4%. Moreover, the IC50 in assay [5] came to 37.4 µM.
On to `COc1ccc(Nc2c(OC)c(=O)c2=O)cc1`, for which the inhibition result in [1] and in assay [2] was “inactive” each time.
As for `O=c1c(Nc2ccc(C(F)(F)F)cc2)c(N[C@@H]2CCCC[C@@H]2N2CCCCC2)c1=O`, the inhibition result in assay [4] and in [6] was “inactive” in each case.
For the compound `Cc1ccc(S(=O)(=O)N[C@@H]2CCCC[C@H]2Nc2c(NCc3cc(C(F)(F)F)cc(C(F)(F)F)c3)c(=O)c2=O)cc1`, the inhibition result in [1] and in assay [2] was “Active” each time. In addition, the inhibition result in assay [4] and in [6] was “inactive” in each case.
Take `COc1c(Nc2ccc(C(C)(C)C)cc2)c(=O)c1=O`: the inhibition entry in assay [1] and in assay [2] was “inactive” each time.
Take `O=c1c(Nc2ccc(C(F)(F)F)cc2)c(N[C@@H]2CCCC[C@H]2N2CCCCC2)c1=O`: the inhibition result in [4] and in assay [6] was “inactive” throughout.
As for `CN(C)[C@@H]1CCCC[C@H]1Nc1c(Nc2cc(C(F)(F)F)cc(C(F)(F)F)c2)c(=O)c1=O`, the inhibition entry in assay [1] and in assay [2] was “Active” in each case. The inhibition entry in assay [4] and in assay [6] was “inactive” each time.
As for `COc1c(N(C)c2ccccc2)c(=O)c1=O`, the inhibition result in assay [1] and in [2] was “inactive” each time.
Take `C=CC1CN2CCC1CC2[C@@H](Nc1c(NCc2cc(C(F)(F)F)cc(C(F)(F)F)c2)c(=O)c1=O)c1ccnc2ccc(OC)cc12` (stereo partly drawn): the inhibition entry in assay [1] and in assay [2] was “Active” in each case.
As to `C=CC1CN2CCC1CC2[C@@H](Nc1c(Nc2ccc(C(F)(F)F)cc2)c(=O)c1=O)c1ccnc2ccc(OC)cc12` (stereo partly drawn), the results for the IC50 in assay [3] and in assay [5] were above 20 µM and 12.8 µM, respectively. Also, the inhibition entry in assay [1], in [6] and in assay [2] was “Active” in each case. Further, in [4], the inhibition entry was “inactive”.
As to `C=CC1CN2CCC1CC2[C@@H](Nc1c(Nc2cc(C(F)(F)F)cc(C(F)(F)F)c2)c(=O)c1=O)c1ccnc2ccc(OC)cc12` (stereo partly drawn), the IC50 in assay [3] is 15.2 µM; in assay [5], 8.21 µM. The inhibition entry in assay [1], in [4], in [6] and in assay [2] was “Active” throughout.
For the compound `COc1ccc(Nc2c(OC)c(=O)c2=O)c(OC)c1`, the inhibition entry in [1] and in [2] was “inactive” in each case.
For the compound `COc1c(Nc2cc(OC(C)C)c(Cl)cc2Cl)c(=O)c1=O`, the inhibition entry in [1] and in assay [2] was “inactive” throughout.
Consider `C=CC1CN2CCC1CC2[C@@H](Nc1c(Nc2ccc(C(F)(F)F)cc2)c(=O)c1=O)c1ccnc2ccccc12` (stereo partly drawn), for which the results for the IC50 in assay [3] and in assay [5] were 10.8 µM and 4.53 µM, respectively. Besides, the inhibition entry in assay [1], in assay [4], in assay [6] and in [2] was “Active” each time.
Consider `Cc1ccc(S(=O)(=O)N[C@@H]2CCCC[C@H]2Nc2c(Nc3cc(C(F)(F)F)cc(C(F)(F)F)c3)c(=O)c2=O)cc1`, for which the inhibition entry in [1] and in assay [2] was “Active” throughout. Also, the inhibition result in assay [4] and in [6] was “inactive” each time.
With `O=c1c(Nc2cc(C(F)(F)F)cc(C(F)(F)F)c2)c(N[C@H]2c3ccccc3C[C@H]2O)c1=O`, the inhibition entry in [1] and in assay [2] was “Active” in each case.
As for `O=c1c(Nc2cc(F)c(F)c(F)c2)c(N[C@@H]2CCCC[C@H]2N2CCCCC2)c1=O`, the inhibition result in assay [4] and in assay [6] was “inactive” each time.
Take `O=c1c(Nc2ccc3ccccc3c2-c2c(O)ccc3ccccc23)c(N[C@@H]2CCCC[C@H]2N2CCCCC2)c1=O`: the figures for the concentration for half-maximal inhibition (IC50) in assay [3] and in assay [5] were above 20 µM and 11.1 µM, respectively. Further, the inhibition entry in assay [4] is “inactive”. Also, in assay [6], the inhibition result was “Active”.
As for `COc1c(Nc2cc(F)c(F)c(F)c2)c(=O)c1=O`, the inhibition result in [1] and in assay [2] was “inactive” throughout.

What is called IC50 is the concentration needed to halve the response being measured.
